Values after ≈ are worked out from the molar mass of the structure shown.
Columns and labels:
Cryptococcus neoformans = assay: Antifungal activity against Cryptococcus neoformans H99 after 48 hrs by growth curve assay; type: functional; conditions: var grubii H99 
[1] = Half life in ICR mouse liver microsomes at 1 uM measured up to 45 mins in presence of NADPH by LC-MS/MS analysis; type: ADME, Microsome
[2] = Solubility of the compound; type: physicochemical

SMILES: Brc1cccc(NCCCn2c3c(c4ccccc42)CCNC3)c1.O=C(O)C(F)(F)F
- MIC80 (Cryptococcus neoformans): 8 µg/mL

SMILES: Clc1ccc(OCCCn2c3c(c4ccccc42)CCNC3)cc1.O=C(O)C(F)(F)F
- MIC80 (Cryptococcus neoformans): 4 µg/mL

SMILES: c1ccc2c(c1)c1c(n2CCCN2CCCCC2)CNCC1
- MIC80 (Cryptococcus neoformans): 64 µg/mL (≈ 215 µM)

SMILES: COc1ccccc1OCCCn1c2c(c3ccccc31)CCNC2.O=C(O)C(F)(F)F
- MIC80 (Cryptococcus neoformans): 32 µg/mL

SMILES: CCN(CC)CCCn1c2c(c3ccccc31)CCNC2
- MIC80 (Cryptococcus neoformans): 64 µg/mL (≈ 224 µM)

SMILES: COc1ccc2c(c1)c1c(n2CCCOc2ccc(Cl)cc2)CNCC1.O=C(O)C(F)(F)F
- MIC80 (Cryptococcus neoformans): 4 µg/mL

SMILES: O=C(O)C(F)(F)F.O=[N+]([O-])c1ccc(OCCCn2c3c(c4ccccc42)CCNC3)cc1
- MIC80 (Cryptococcus neoformans): 16 µg/mL

SMILES: COc1cccc(OCCCn2c3c(c4ccccc42)CCNC3)c1.O=C(O)C(F)(F)F
- MIC80 (Cryptococcus neoformans): 16 µg/mL

SMILES: Cc1ccc(NCCCn2c3c(c4ccccc42)CCNC3)cc1.O=C(O)C(F)(F)F
- MIC80 (Cryptococcus neoformans): 16 µg/mL

SMILES: O=C1c2ccccc2C(=O)N1CCCn1c2c(c3ccccc31)CCNC2
- MIC80 (Cryptococcus neoformans): 64 µg/mL (≈ 178 µM)

SMILES: Fc1ccc(OCCCn2c3c(c4ccccc42)CCNC3)cc1.O=C(O)C(F)(F)F
- MIC80 (Cryptococcus neoformans): 8 µg/mL

SMILES: CC1CCCN(CCCn2c3c(c4ccccc42)CCNC3)C1 (stereo unspecified)
- MIC80 (Cryptococcus neoformans): 32 µg/mL (≈ 103 µM)

SMILES: COc1ccc2c3c(n(CCCOc4ccc(Cl)cc4)c2c1)CNCC3.O=C(O)C(F)(F)F
- MIC80 (Cryptococcus neoformans): 2 µg/mL

SMILES: Fc1cccc2c1c1c(n2CCCOc2ccc(Cl)cc2)CNCC1.O=C(O)C(F)(F)F
- MIC80 (Cryptococcus neoformans): 4 µg/mL

SMILES: CCOc1ccccc1NCCCn1c2c(c3ccccc31)CCNC2.O=C(O)C(F)(F)F
- MIC80 (Cryptococcus neoformans): 32 µg/mL

SMILES: Clc1cccc(NCCCn2c3c(c4ccccc42)CCNC3)c1.O=C(O)C(F)(F)F
- MIC80 (Cryptococcus neoformans): 8 µg/mL

SMILES: COc1cccc2c3c(n(CCCOc4ccc(Cl)cc4)c12)CNCC3.O=C(O)C(F)(F)F
- MIC80 (Cryptococcus neoformans): 4 µg/mL

SMILES: Fc1ccccc1OCCCn1c2c(c3ccccc31)CCNC2.O=C(O)C(F)(F)F
- MIC80 (Cryptococcus neoformans): 16 µg/mL

SMILES: c1ccc(C2CCN(CCCn3c4c(c5ccccc53)CCNC4)CC2)cc1
- MIC80 (Cryptococcus neoformans): 32 µg/mL (≈ 85.7 µM)

SMILES: c1ccc(CN2CCN(CCCn3c4c(c5ccccc53)CCNC4)CC2)cc1
- MIC80 (Cryptococcus neoformans): 32 µg/mL (≈ 82.4 µM)

SMILES: Clc1ccccc1OCCCn1c2c(c3ccccc31)CCNC2.O=C(O)C(F)(F)F
- MIC80 (Cryptococcus neoformans): 4 µg/mL

SMILES: Clc1ccccc1NCCCn1c2c(c3ccccc31)CCNC2.O=C(O)C(F)(F)F
- MIC80 (Cryptococcus neoformans): 8 µg/mL

SMILES: Clc1cccc(OCCCn2c3c(c4ccccc42)CCNC3)c1.O=C(O)C(F)(F)F
- MIC80 (Cryptococcus neoformans): 4 µg/mL

SMILES: Brc1cccc(OCCCn2c3c(c4ccccc42)CCNC3)c1.O=C(O)C(F)(F)F
- MIC80 (Cryptococcus neoformans): 4 µg/mL

SMILES: CCOc1cccc(NCCCn2c3c(c4ccccc42)CCNC3)c1.O=C(O)C(F)(F)F
- MIC80 (Cryptococcus neoformans): 64 µg/mL

SMILES: COc1ccccc1NCCCn1c2c(c3ccccc31)CCNC2.O=C(O)C(F)(F)F
- MIC80 (Cryptococcus neoformans): 32 µg/mL

SMILES: Cc1ncc2n1-c1ccc(Cl)cc1C(c1ccccc1F)=NC2 [MIDAZOLAM]
- half-life at 1 µM [1]: 2 min

SMILES: Clc1ccc(OCCCn2c3c(c4cc(Br)ccc42)CCNC3)cc1.O=C(O)C(F)(F)F
- MIC80 (Cryptococcus neoformans): 0.5 µg/mL
- solubility [2]: 19.3 µg/mL

SMILES: Fc1cccc(OCCCn2c3c(c4ccccc42)CCNC3)c1.O=C(O)C(F)(F)F
- MIC80 (Cryptococcus neoformans): 8 µg/mL

SMILES: Clc1ccc(OCCCn2c3c(c4ccc(Cl)cc42)CCNC3)cc1.O=C(O)C(F)(F)F
- MIC80 (Cryptococcus neoformans): 2 µg/mL

Reference: ChEMBL document CHEMBL4400538, “Discovery of Carboline Derivatives as Potent Antifungal Agents for the Treatment of Cryptococcal Meningitis” (J Med Chem, 2019)
